The values below come from US20230092890A1, “1, 3, 4-Oxadiazole derivative compounds as histone deacetylase 6 inhibitor, and the pharmaceutical composition comprising the same” (Chong Kun Dang Pharmaceutical Corp., priority 2019, published 2023).

SMILES strings stand for the structures.

For experiment [1], the target named is T1, HDAC6 human recombinant (Homo sapiens, UniProt Q9UBN7).
T1 construct: purchased Calbiochem 382180
T1 sequence (Q9UBN7 1-1215): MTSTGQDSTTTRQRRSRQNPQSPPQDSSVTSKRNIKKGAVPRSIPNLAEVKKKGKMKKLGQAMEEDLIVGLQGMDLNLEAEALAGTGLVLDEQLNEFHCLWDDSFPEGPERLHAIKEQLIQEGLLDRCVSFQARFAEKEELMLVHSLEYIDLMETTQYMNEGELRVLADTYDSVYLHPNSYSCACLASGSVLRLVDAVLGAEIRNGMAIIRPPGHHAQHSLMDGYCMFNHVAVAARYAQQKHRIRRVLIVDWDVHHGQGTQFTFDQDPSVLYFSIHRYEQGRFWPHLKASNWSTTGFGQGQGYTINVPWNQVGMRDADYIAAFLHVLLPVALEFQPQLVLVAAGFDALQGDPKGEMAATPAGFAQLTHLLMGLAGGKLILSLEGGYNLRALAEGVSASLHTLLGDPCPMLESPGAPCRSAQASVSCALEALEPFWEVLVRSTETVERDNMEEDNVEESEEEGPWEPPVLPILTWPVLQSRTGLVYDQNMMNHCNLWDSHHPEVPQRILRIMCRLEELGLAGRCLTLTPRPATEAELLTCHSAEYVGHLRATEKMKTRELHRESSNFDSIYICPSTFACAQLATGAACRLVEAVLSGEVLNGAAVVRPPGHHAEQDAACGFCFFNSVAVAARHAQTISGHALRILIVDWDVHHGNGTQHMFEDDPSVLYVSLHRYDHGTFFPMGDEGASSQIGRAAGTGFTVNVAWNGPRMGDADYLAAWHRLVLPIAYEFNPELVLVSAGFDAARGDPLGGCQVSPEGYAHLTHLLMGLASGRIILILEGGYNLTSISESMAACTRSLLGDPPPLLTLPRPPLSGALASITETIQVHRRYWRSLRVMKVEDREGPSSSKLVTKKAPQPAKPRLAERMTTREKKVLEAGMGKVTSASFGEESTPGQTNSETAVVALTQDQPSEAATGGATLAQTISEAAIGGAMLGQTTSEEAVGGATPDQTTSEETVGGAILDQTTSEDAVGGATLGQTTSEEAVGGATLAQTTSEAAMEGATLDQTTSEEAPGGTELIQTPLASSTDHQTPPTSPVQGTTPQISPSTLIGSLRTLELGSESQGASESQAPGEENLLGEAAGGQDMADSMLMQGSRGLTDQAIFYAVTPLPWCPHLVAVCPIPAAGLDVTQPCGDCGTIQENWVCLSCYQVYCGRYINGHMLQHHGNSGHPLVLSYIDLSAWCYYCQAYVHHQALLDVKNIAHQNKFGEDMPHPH
Nature of the experiment: HDAC enzyme activity inhibition (in vitro), HDAC6 assay. It is filed as biochemical. Particulars: samples at 0.1, 1, 10, 100 and 1000 nM; 37° C. 60 minutes; fluorescence Ex 390, Em 460; read-out: HDAC6 IC50. The gist of the method: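 Fluorescence (Ex 390, Em 460) read after a 37° C, 60 min enzyme reaction and a further 30 min developer step at 37° C. Uses recombinant human HDAC6; HDAC1 arm dosed at 100, 1000, 10000 nM.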

Experiment [2] concerns the target T2, HDAC1 (Homo sapiens, UniProt Q13547).
T2 construct: purchased Enzolifesciences BML-AK511
Nature of the experiment: HDAC enzyme activity inhibition (in vitro), HDAC1 Fluorimetric Drug Discovery Assay Kit. It is filed as biochemical. To be noted: samples at 100, 1000 and 10000 nM; 37° C. 60 minutes; fluorescence Ex 390, Em 460; read-out: HDAC1 IC50. The method in brief: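 Fluorescence read-out (Ex 390/Em 460) after developer step, 30 min at 37° C, following a 60-min 37° C enzyme reaction. Test concentrations: HDAC1 kit, 100–10000 nM (three levels); recombinant human HDAC6, 0.1–1000 nM (five levels).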

T2 sequence (Q13547 whole entry): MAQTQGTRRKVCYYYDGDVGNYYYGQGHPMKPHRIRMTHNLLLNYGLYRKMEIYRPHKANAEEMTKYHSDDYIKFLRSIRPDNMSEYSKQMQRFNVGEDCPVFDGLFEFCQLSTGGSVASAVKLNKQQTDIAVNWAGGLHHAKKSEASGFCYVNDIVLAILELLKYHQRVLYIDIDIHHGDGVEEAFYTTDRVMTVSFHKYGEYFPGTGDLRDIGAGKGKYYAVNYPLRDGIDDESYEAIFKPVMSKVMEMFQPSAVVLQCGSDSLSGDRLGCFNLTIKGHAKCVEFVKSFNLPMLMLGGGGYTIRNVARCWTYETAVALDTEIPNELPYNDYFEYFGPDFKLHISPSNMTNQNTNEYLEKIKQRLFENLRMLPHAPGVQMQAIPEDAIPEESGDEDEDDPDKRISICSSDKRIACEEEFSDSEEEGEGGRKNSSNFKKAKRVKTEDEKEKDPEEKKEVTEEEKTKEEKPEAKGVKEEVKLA

As for `O=c1oc2cc(C3CCN(C4CCC4)CC3)ccc2n1Cc1ccc(-c2nnc(C(F)F)o2)cn1` [Compound 315, 6-(1-cyclobutylpiperidine-4-yl)-3-((5-(5-(difluoromethyl)-1,3,4-oxadiazole-2-yl)pyridine-2-yl)methyl)benzo[d]oxazole-2(3H)-one], the IC50 in experiment [1] was 118 nM; in experiment [2], greater than 10000 nM.
Regarding `CC(C)(C)OC(=O)N1CCN(c2cc3oc(=O)n(Cc4ccc(-c5nnc(C(F)F)o5)cn4)c3cc2F)CC1` [Compound 316, tert-butyl 4-(3-((5-(5-(difluoromethyl)-1,3,4-oxadiazole-2-yl)pyridine-2-yl)methyl)-5-fluoro-2-oxo-2,3-dihydrobenzo[d]oxazole-6-yl)piperazine-1-carboxylate], the IC50 in experiment [1] was 91 nM; in experiment [2] it was greater than 10000 nM.
The matching figures for `CN1CCN(c2cc3oc(=O)n(Cc4ccc(-c5nnc(C(F)F)o5)cn4)c3cc2F)CC1` [Compound 317, 3-((5-(5-(difluoromethyl)-1,3,4-oxadiazole-2-yl)pyridine-2-yl)methyl)-5-fluoro-6-(4-methylpiperazine-1-yl)benzo[d]oxazole-2(3H)-one]: 15 nM and greater than 10000 nM.
As to `O=c1oc2cc(N3CCN(C4COC4)CC3)c(F)cc2n1Cc1ccc(-c2nnc(C(F)F)o2)cn1` [Compound 318, 3-((5-(5-(difluoromethyl)-1,3,4-oxadiazole-2-yl)pyridine-2-yl)methyl)-5-fluoro-6-(4-(oxetan-3-yl)piperazine-1-yl)benzo[d]oxazole-2(3H)-one], the IC50 is 56 nM in experiment [1] and greater than 10000 nM in experiment [2].
The matching figures for `CN1CCN(c2cc3c(cc2F)n(Cc2ccc(-c4nnc(C(F)F)o4)cn2)c(=O)n3C2COC2)CC1` [Compound 319, 1-((5-(5-(difluoromethyl)-1,3,4-oxadiazole-2-yl)pyridine-2-yl)methyl)-6-fluoro-5-(4-methylpiperazine-1-yl)-3-(oxetan-3-yl)-1,3-dihydro-2H-benzo[d]imidazole-2-one]: 39 nM and greater than 10000 nM.
The matching figures for `O=c1n(Cc2ccc(-c3nnc(C(F)F)o3)cn2)c2cc(F)c(N3CCN(C4CCC4)CC3)cc2n1C1COC1` [Compound 320, 5-(4-cyclobutylpiperazine-1-yl)-1-((5-(5-(difluoromethyl)-1,3,4-oxadiazole-2-yl)pyridine-2-yl)methyl)-6-fluoro-3-(oxetan-3-yl)-1,3-dihydro-2H-benzo[d]imidazole-2-one]: 41 nM and greater than 10000 nM.
The matching figures for `O=c1n(Cc2ccc(-c3nnc(C(F)F)o3)cn2)c2cc(F)c(N3CCN(C4COC4)CC3)cc2n1C1COC1` [Compound 321, 1-((5-(5-(difluoromethyl)-1,3,4-oxadiazole-2-yl)pyridine-2-yl)methyl)-6-fluoro-3-(oxetan-3-yl)-5-(4-(oxetan-3-yl)piperazine-1-yl)-1,3-dihydro-2H-benzo[d]imidazole-2-one]: 53 nM and greater than 10000 nM.
As for `O=c1n(Cc2ccc(-c3nnc(C(F)F)o3)cn2)c2cc(F)c(N3CCN(Cc4cccc5[nH]ccc45)CC3)cc2n1C1COC1` [Compound 322, 5-(4-((1H-indole-4-yl)methyl)piperazine-1-yl)-1-((5-(5-(difluoromethyl)-1,3,4-oxadiazole-2-yl)pyridine-2-yl)methyl)-6-fluoro-3-(oxetan-3-yl)-1,3-dihydro-2H-benzo[d]imidazole-2-one], the IC50 in experiment [1] was 29 nM; in experiment [2] it was greater than 10000 nM.
The matching figures for `O=c1n(Cc2ccc(-c3nnc(C(F)F)o3)cn2)c2cc(F)c(N3CCN(Cc4cn[nH]c4)CC3)cc2n1C1COC1` [Compound 323, 5-(4-((1H-pyrazole-4-yl)methyl)piperazine-1-yl)-1-((5-(5-(difluoromethyl)-1,3,4-oxadiazole-2-yl)pyridine-2-yl)methyl)-6-fluoro-3-(oxetan-3-yl)-1,3-dihydro-2H-benzo[d]imidazole-2-one]: 35 nM and greater than 10000 nM.
The matching figures for `O=c1n(Cc2ccc(-c3nnc(C(F)F)o3)cn2)c2cc(F)c(N3CCN(Cc4cccnc4)CC3)cc2n1C1COC1` [Compound 324, 1-((5-(5-(difluoromethyl)-1,3,4-oxadiazole-2-yl)pyridine-2-yl)methyl)-6-fluoro-3-(oxetan-3-yl)-5-(4-(pyridine-3-ylmethyl)piperazine-1-yl)-1,3-dihydro-2H-benzo[d]imidazole-2-one]: 42 nM and greater than 10000 nM.
The matching figures for `O=c1n(Cc2ccc(-c3nnc(C(F)F)o3)cn2)c2cc(F)c(N3CCN(CC(F)(F)F)CC3)cc2n1C1COC1` [Compound 325]: 70 nM and greater than 10000 nM.
As for `CN(C)CCn1c(=O)n(Cc2ccc(-c3nnc(C(F)F)o3)cn2)c2cc(F)c(-c3cccnc3)cc21` [Compound 326, 1-((5-(5-(difluoromethyl)-1,3,4-oxadiazole-2-yl)pyridine-2-yl)methyl)-3-(2-(dimethylamino)ethyl)-6-fluoro-5-(pyridine-3-yl)-1,3-dihydro-2H-benzo[d]imidazole-2-one], the IC50 was 160 nM in experiment [1] and greater than 10000 nM in experiment [2].
The matching figures for `CN(C)CCn1c(=O)n(Cc2ccc(-c3nnc(C(F)F)o3)cn2)c2cc(F)c(-c3ccncc3)cc21` [Compound 327, 1-((5-(5-(difluoromethyl)-1,3,4-oxadiazole-2-yl)pyridine-2-yl)methyl)-3-(2-(dimethylamino)ethyl)-6-fluoro-5-(pyridine-4-yl)-1,3-dihydro-2H-benzo[d]imidazole-2-one]: 58 nM and greater than 10000 nM.
The matching figures for `CN1CCN(c2cc3c(cc2F)n(Cc2ccc(-c4nnc(C(F)F)o4)cn2)c(=O)n3-c2cccnc2)CC1` [Compound 328, 1-((5-(5-(difluoromethyl)-1,3,4-oxadiazole-2-yl)pyridine-2-yl)methyl)-6-fluoro-5-(4-methylpiperazine-1-yl)-3-(pyridine-3-yl)-1,3-dihydro-2H-benzo[d]imidazole-2-one]: 85 nM and greater than 10000 nM.
The matching figures for `O=c1n(Cc2ccc(-c3nnc(C(F)F)o3)cn2)c2cc(F)c(N3CCN(C4COC4)CC3)cc2n1-c1cccnc1` [Compound 329, 1-((5-(5-(difluoromethyl)-1,3,4-oxadiazole-2-yl)pyridine-2-yl)methyl)-6-fluoro-5-(4-(oxetan-3-yl)piperazine-1-yl)-3-(pyridine-3-yl)-1,3-dihydro-2H-benzo[d]imidazole-2-one]: 127 nM and greater than 10000 nM.
For `Cn1c(=O)n(Cc2ccc(-c3nnc(C(F)F)o3)cn2)c2cc(F)c(-c3ccc(CN4CCOCC4)nc3)cc21` [Compound 330, 1-((5-(5-(difluoromethyl)-1,3,4-oxadiazole-2-yl)pyridine-2-yl)methyl)-6-fluoro-3-methy 1-5-(6-(morpholinomethyl)pyridine-3-yl)-1,3-dihydro-2H-benzo[d]imidazole-2-one], the IC50 in experiment [1] was 22 nM; in experiment [2] it was greater than 10000 nM.
The matching figures for `CN1CCC(c2ccc3c(c2)sc(=O)n3Cc2ccc(-c3nnc(C(F)F)o3)cn2)CC1` [Compound 331, 3-((5-(5-(difluoromethyl)-1,3,4-oxadiazole-2-yl)pyridine-2-yl)methyl)-6-(1-methylpiperidine-4-yl)benzo[d]thiazole-2(3H)-one]: 61 nM and greater than 10000 nM.

By IC50 is commonly meant the concentration that inhibits the measured activity by half.
